Results reported in patent US4849227A, “Pharmaceutical compositions” (Eurasiam Laboratories, Inc., priority 1987, dated 1989).
Where two headings read alike, the source gives them in different places.

Columns and labels:
hypoglycemic response [1] = details: oral, 150 IU/Kg, rabbits; cited from earlier work
serum glucose levels = test: Test 8: serum glucose in IDDM patients; type: in vivo, human; details: Regular Insulin 0.172 IU/Kg s.c., Oral Insulin 0.649 IU/Kg
Source text: Seven Insulin-Dependent Diabetics (IDDM) patients, 6 males and one person, between 24 to 47 years old (average 34.4) weighing between 48 and 68 Kg each (average 58.6 kg) took between 32 to 48 (average 42.6) International Units of Oral Insulin Formulation of Example 7, orally, after fasting overnight and fasting throughout the study.
(§1) Each subject in Test 8 was given two capsules of the lipolytic enzyme composition set forth in Test 1-E with each dose of oral insulin.

[2] = Test 5-A: bioavailability of insulin (serum insulin); type: in vivo, human; details: Regular Insulin 0.172 IU/Kg s.c.; Example 4 0.544 IU/Kg oral 1st dose; Example 5 0.649 IU/Kg oral 1st, fasting
Method: (§2) The bioavailability of insulin and its corresponding hypoglycemic effects of Example 4 and Example 5 oral insulin preparations were studied in a group of IDDM and NIDDM patients. Example 4 oral insulin was also studied in two normal, healthy male volunteers. In all of the tests set forth in 5-A, the subjects received with each dose of oral insulin two capsules of the lipolytic enzyme of Test 1-E.
(§3) At least 12 or 24 hours prior to the study the patients normal anti-diabetic therapeutic agents were withheld from the patients. After overnight fasting and fasting throughout the entire period of the study, Example 4 or Example 5 oral insulin preparations were orally administered.
(§4) A venous sampling catheter was placed into a vein, usually at the antecubital vein, and blood samples were drawn at time 0, 1.0, 1.5, 2.0, 2.5, 3.0, 4.0 and/or 5.0 hours after the drug administration. Serum glucose was measured on a Gilfordx400, and serum insulin was analyzed by using an Immuno-Enzymatic o-Phenylendiamine (OPD) method and Insulin-B test kit of WAKO (Japan). All measurements were made in duplicate.
(§5) As stated above, two healthy male volunteers […] participated in the study. One subject received the oral insulin of Example 4 twice over a two week period, once each week, receiving 0.20 and 0.27 IU per Kg of the oral insulin. […] Serum insulin level was peaked to 20 micro-U per ml occurring at 1.5 hours after the drug ingestion on both occasions.
(§6) Five IDDM Patients have completed all three phases of the study of test 5-A: i.e., they received 10 IU, subcutaneous injection of regular injectable insulin-40 (of Tong Shin Pharm Co. of Seoul, Korea) the first week; they received one single oral dosing of Example 4 (0.544 IU/kg average dose) one week later; and the next week they received 9 consecutive dosings of Example 4 (average dose was 0.544 IU/kg), given at 6-hour intervals.

[3] = Test 8: bioavailability of insulin (insulin levels in serum); type: in vivo, human; details: Reg. Insulin 0.172 IU/Kg s.c.; Oral Insulin 0.630 IU/Kg; IDDM
Method: In two IDDM patients, bioavailability of insulin (insulin levels in serum) was measured after oral administration of Oral Insulin Formulation of Example 7 (0.63 I.U./Kg).
Compared to 0.172 IU/Kg of Regular Insulin, subcutaneous injection in 5 IDDM patients, the `pharmacokinetic and bioavailability` of insulin are as follows:
as §1

serum glucose = test: Test 5-A: hypoglycemic effects (serum glucose); type: in vivo, human
Method: as §2, §3, §4, §5
The second volunteer received 10 IU of regular injectable insulin-40 (of Tong Shin Pharm. Co. of Seoul, Korea), subcutaneously. […] They were given a glass of fresh orange juice and serum glucose level rose to about 115 mg/dl within one hour.
as §6
The Oral Insulin Example 4 was given to a total of 8 IDDM patients (10 trials) (two repeated the study) and 7 NIDDM patients (11 trials) (four patients repeated the study).
Seven IDDM Patients completed the study after oral administration of a single dose of the Example 5 oral insulin preparation.

[4] = test system: blood sugar (hypoglycemic effect); test: Test 1-D: intravenous rabbit bioassay; type: in vivo, white rabbits; details: rabbits, 4 I.U. i.v.; after completion of the infusion
Method: FIG. 8 is a comparison of Tong-Shin insulin, the oral insulin of Example 1, and Novo insulin, pursuant to the test of Test 1-D.
In this test, the oral insulin composition of Example 1 was compared with Novo monocomponent porcine crystalline insulin and a regular injectable insulin-40 (Tong-Shin Pharmaceutical Co.) in intravenous rabbit bioassays. Three white rabbits, each weighing 1.8 Kg were fasted overnight and were treated with an intravenous infusion over ten minutes of 4 I.U. of either the Novo insulin, the Tong-Shin insulin-40, or an emulsion comprising the oral insulin composition of Example 1. A venous blood sample was collected from the ear vein of each of the rabbits at 30 minutes prior to the insulin infusion and at times 0, 15, 30, 45, 60, 75, 90 and 105 minutes after completion of the infusions.

blood glucose levels = test: Test 1-E: oral insulin in healthy male volunteers, blood glucose; type: in vivo, human
Method: In this test, the oral insulin composition of Example 1 was administered orally to two healthy male volunteers.
Two healthy volunteers, weighing 52 and 54 Kg participated in the study. Each subject received a 16 I.U. dose of the oral insulin composition of Example 1 during the study. Along with the oral insulin composition of Example 1, each participant received two capsules of lipolytic enzymes. Each capsule consisted of:
The enzyme capsules were made as follows: Pancreatic Lipase was coated with 0.1 to 0.3 microns thick coating of hydroxypropylecellulose and enteric coated with the coating of Example 1. Amylase and Protease were then added. The resultant composition was then coated with 0.1 micron of hydroxypropylcellulose. Bile Salts that had been coated with 0.1 micron of hydroxypropylcellulose was then added to a hard gel capsule with the Pancreatic Lipase resultant product.
At 7:30 am on the day of the trial, each participant consumed a standard breakfast consisting of two fried eggs, two strips of bacon, two slices of toasted dark bread, a tablespoon of butter, and cup of black coffee. The insulin composition of Example 1 was administered orally at 10:00 am to both subjects. The oral insulin was administered in capsules comprising 16 I.U. of Novo crystalline monocomponent porcine insulin. At 12:00 both subjects consumed a standard lunch consisting of 180 gm of beef steak, a tossed green salad with oil and vinegar dressing, a piece of dark bread, and black coffee.
Blood samples were collected from the subject at 10:00, 13:00 and 16:00 and were analyzed for blood glucose levels.
One week later, both volunteers had the standard breakfast (i.e., the breakfast given on the first day of the test) at the same time. At 10:00 both subjects received a subcutaneous injection of 16 I.U. of Tong-Shin regular injectable insulin-40. At approximately 10:30 both subjects began to experience hypoglycemic reactions which lasted for roughly two hours. Both subjects were served pure orange juice at 11:20 and were served the standard lunch at 12:00.

venous serum sugar level = test: Test 1-C: bioassay in pigs, serum sugar level; type: in vivo, Yorkshire pigs; details: 8 I.U. intravenously
Source text: FIG. 7 is a comparison of the venous serum sugar levels of two pigs, one given the composition of Example 1 and one given Actrapid. The venous serum sugar level of the pig given Example 1 is denoted by "o" and the venous serum sugar level of the pig given actrapid is denoted by "x". The x axis is in minutes and the y axis is in millimoles of serum glucose.
In this test, the oral insulin composition of Example 1 was compared with Actripid intravenous insulin solution (Novo) in a bioassay. Two Yorkshire pigs were fasted overnight and one pig was given 8 I.U. of the Actripid insulin intravenously. The other pig was given an intravenous infusion over a period of 15 minutes of 8 I.U. of the oral insulin composition of Example 1 that had been dissolved into 50 ml of water. Blood was taken from the pair of pigs and the serum sugar levels were measured. […] (See FIG. 7.)

plasma glucose level = test: Test 12B: plasma glucose in a female dog; type: in vivo
Method: Hypoglycemic action of the formulation was compared to that of intra-duodenally administered regular injectable insulin (novo actrapid insulin, 1.0 IU per Kg) and of intravenously administered regular injectable insulin (novo actrapid insulin, 0.5 IU per Kg). After infusion of 1.26 IU of regular injectable insulin, intravenously, the plasma glucose level dropped from […] within 20 minutes and returned to […] within 3 hours. Then, 6 IU of regular injectable insulin was intra-duodenally given.

hypoglycemic effect [5] = details: water/oil/water emulsion, rats; cited from earlier work
hypoglycemic response [6] = details: oral with pancreas inactivating agents; cited from earlier work
[7] = buccal, cocoa fat base and surfactant, dogs; cited from earlier work
hypoglycemic response [8] = details: aerosol, 2.5 U/Kg, rabbits; cited from earlier work
[9] = cited from earlier work
hypoglycemic effect [10] = details: other emulsion systems with fat soluble vitamins, dogs; cited from earlier work
hypoglycemic effect [11] = details: oral with isopropylfruorophosphate and indole-3-acetate, rats; cited from earlier work
[12] = intra-nasal, dogs; cited from earlier work
blood sugar level = details: oral with surfactants; cited from earlier work
[13] = Regular Insulin 0.172 IU/Kg s.c., Example 4 0.544 IU/Kg oral 1st dose, Example 5 0.649 IU/Kg oral 1st, fasting

beta-Naphthyl-azo-Polystearryle-insulin
hypoglycemic response (hypoglycemic response [1]): induced a hypoglycemic response

Regular Insulin
CO (printed 00), base value of glucose (serum glucose levels): 271 Mg/dl | Cmin, minimum value of glucose observed (serum glucose levels): 94.5 Mg/dl | T100, time to reach 100 mg/dl (serum glucose levels): 2.1 | TC-min, time of observing the minimum glucose level (serum glucose levels): 4.0 | dC/dT, rate of hypoglycemic action (serum glucose levels): 59.16 | IO, base value of Serum Insulin [2]: 8.0 micro-U/ml | Imax, maximum value of insulin [2]: 20.3 micro-U/ml | TI-O, time to reach the base value of Serum Insulin level [2]: 4.8 | TI-max, time to reach the maximum Serum insulin level [2]: 1.5 | dI/dT, rate of rise of serum insulin level [2]: 38.29 | IO, base value of insulin [3]: 8.0 micro-U/ml | Imax, maximum value of serum insulin [3]: 20.3 micro-U/ml | TI-O, time to reach the base value of serum insulin [3]: 4.8 | TI-max, time of observing the maximum value of serum insulin [3]: 1.5 | dI/dt, rate of rise of serum insulin (absorption rate) [3]: 38.29 | CO, base value of Serum Glucose (serum glucose; [13]): 271 mg/dL | Cmin, minimum value of glucose (serum glucose; [13]): 94.5 mg/dL | T100, time to reach 100 mg/dl of serum glucose (serum glucose; [13]): 2.1 | TC-min, time of observing the minimum glucose level (serum glucose; [13]): 4.0 | dC/dT, rate of reduction in Serum Glucose levels (serum glucose; [13]): 59.16 | time of insulin-induced shock symptoms (serum glucose; healthy volunteer, 10 IU subcutaneous): 72 min | serum glucose at time of shock symptoms (serum glucose; healthy volunteer, 10 IU subcutaneous, 72 minutes): 47 mg/dL | serum glucose after orange juice (serum glucose; healthy volunteer, 10 IU subcutaneous, within one hour of orange juice): about 115 mg/dl | time of peak hypoglycemic effect [4]: 60 min | duration of hypoglycemic reactions (blood glucose levels; 16 I.U. subcutaneous): roughly two | time of peak hypoglycemic effect (blood glucose levels; 16 I.U. subcutaneous): roughly 3 hours | blood glucose / effect after six hours (blood glucose levels; 16 I.U., 6 hours): the effect disappeared by 6 hours after administration

Actripid insulin: intravenous insulin solution (Novo)
decrease of venous serum sugar level, compared between the two insulins (venous serum sugar level): decreased by roughly an equal degree | plasma glucose level before infusion (plasma glucose level; 1.26 IU intravenous): 102 mg/dL | plasma glucose level, return (plasma glucose level; 1.26 IU intravenous, within 3 hours): 100 mg/dL | change of blood glucose level (plasma glucose level; 6 IU intra-duodenal, over three hours): No changes in the blood glucose levels

Novo insulin: Novo monocomponent porcine crystalline insulin
time of peak hypoglycemic effect [4]: ≤ 30 min

insulin
intramuscular dose with effect equivalent to 250 IU/Kg orally (hypoglycemic effect [5]): 10 IU/Kg | bioavailability equivalent of hypoglycemic response (hypoglycemic response [6]): 3% | bioavailability [7]: only poor bioavailability | hypoglycemic response (hypoglycemic response [8]): induced hypoglycemic response | bioactivity after oral administration [9]: low bioactivities | hypoglycemic effects (hypoglycemic effect [10]): mild and not dose responsive | hypoglycemic effect (hypoglycemic effect [11]): induce a hypoglycemic effect | bioavailability [12]: high bioavailability | intravenous dose with effect on blood sugar equivalent to 35 units orally (blood sugar level): 4 units
